The results in this text go back to patent publication US10040759B2, “Substituted azetidinyl compounds as GlyT1 inhibitors” (DART NEUROSCIENCE (CAYMAN) LTD., priority 2014, dated 2018).

In the test the target is T1, GlyT1 (Homo sapiens, UniProt P48067).
T1 construct: expressed in transfected cells
T1 sequence (P48067 1-706): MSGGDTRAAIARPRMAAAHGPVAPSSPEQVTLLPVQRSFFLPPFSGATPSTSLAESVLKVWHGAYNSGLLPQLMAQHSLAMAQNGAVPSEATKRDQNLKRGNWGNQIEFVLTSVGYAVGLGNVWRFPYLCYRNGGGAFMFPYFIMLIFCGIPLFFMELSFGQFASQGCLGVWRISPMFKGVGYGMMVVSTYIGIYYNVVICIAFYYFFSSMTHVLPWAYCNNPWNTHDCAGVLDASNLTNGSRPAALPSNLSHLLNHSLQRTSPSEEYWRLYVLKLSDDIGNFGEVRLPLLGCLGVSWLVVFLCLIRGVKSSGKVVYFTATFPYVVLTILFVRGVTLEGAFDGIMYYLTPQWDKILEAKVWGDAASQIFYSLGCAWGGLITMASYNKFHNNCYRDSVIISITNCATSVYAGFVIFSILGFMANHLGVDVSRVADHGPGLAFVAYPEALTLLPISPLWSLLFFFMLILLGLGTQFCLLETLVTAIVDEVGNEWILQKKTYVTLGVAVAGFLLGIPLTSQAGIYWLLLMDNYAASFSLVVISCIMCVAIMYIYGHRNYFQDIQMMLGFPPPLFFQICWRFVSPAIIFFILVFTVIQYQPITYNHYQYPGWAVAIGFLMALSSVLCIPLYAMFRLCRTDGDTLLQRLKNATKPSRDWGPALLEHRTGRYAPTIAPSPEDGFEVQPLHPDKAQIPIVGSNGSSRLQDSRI
As to the kind of experiment: Glycine Transporter 1 (GlyT1) uptake assay, scintillation proximity assay of [14C]-glycine uptake. The test is classed as cell-based. Particulars: [14C]-glycine uptake; read-out: GlyT1 (pIC50) (converted). The gist of the method:
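IC50 values were derived by four-parameter logistic fitting of counts. The 2× compound solutions were made by 1:100 dilution into HBSS of DMSO serial dilutions.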
(Scintillation proximity formats need no separation of bound from free tracer.)

For `COc1c(C#N)ccc(C2(F)CCOCC2)c1C(=O)N1CC(F)(c2ccc(C(F)(F)F)cc2)C1` [Example 17, 3-({3-Fluoro-3-[4-(trifluoromethyl)phenyl]azetidin-1-yl}carbonyl)-4-(4-fluorooxan-4-yl)-2-methoxybenzonitrile], the IC50 is 100 to 1000 nM.
Next, `COc1c(C#N)ccc(O[C@@H](C)C(F)(F)F)c1C(=O)N1CC(c2ccccc2)C1` [Example 50, 2-Methoxy-3-(3-phenylazetidine-1-carbonyl)-4-{[(2S)-1,1,1-trifluoropropan-2-yl]oxy}benzonitrile]: 100 to 1000 nM; `COc1c(S(C)(=O)=O)ccc(OC(C)C)c1C(=O)N1CC(c2ccc(C(F)(F)F)cn2)C1` [Example 213, 2-{1-[3-Methanesulfonyl-2-methoxy-6-(propan-2-yloxy)benzoyl]azetidin-3-yl}-5-(trifluoromethyl)pyridine]: 100 to 1000 nM; `COc1c(S(C)(=O)=O)ccc(O[C@@H](C)C(F)(F)F)c1C(=O)N1CC(Oc2ccccc2Cl)C1` [Example 46, 3-(2-Chlorophenoxy)-1-(3-methanesulfonyl-2-methoxy-6-{[(2S)-1,1,1-trifluoropropan-2-yl]oxy}benzoyl)azetidine]: 100 to 1000 nM.
Regarding `COc1c(S(C)(=O)=O)ccc(O[C@@H](C)C(F)(F)F)c1C(=O)N1CC(c2ccc3ncoc3c2)C1` [Example 246, 6-[1-(3-Methanesulfonyl-2-methoxy-6-{[(2S)-1,1,1-trifluoropropan-2-yl]oxy}benzoyl)azetidin-3-yl]-1,3-benzoxazole], the IC50 was under 100 nM.
Next, `COc1c(S(C)(=O)=O)ccc(OCC(F)(F)F)c1C(=O)N1CC(c2ccc(C(F)(F)F)cn2)C1` [Example 229, 2-{1-[3-Methanesulfonyl-2-methoxy-6-(2,2,2-trifluoroethoxy)benzoyl]azetidin-3-yl}-5-(trifluoromethyl)pyridine]: 100 to 1000 nM; `COc1c(S(C)(=O)=O)ccc(O[C@@H](C)C(F)(F)F)c1C(=O)N1CC(c2ccc(C(F)(F)F)cc2F)C1` [Example 139, 3-[2-Fluoro-4-(trifluoromethyl)phenyl]-1-(3-methanesulfonyl-2-methoxy-6-{[(2S)-1,1,1-trifluoropropan-2-yl]oxy}benzoyl)azetidine]: under 100 nM; `COc1c(S(C)(=O)=O)ccc(OC(C)C)c1C(=O)N1CC(c2ccc(C(F)(F)F)cc2)C1` [Example 217, 1-[3-Methanesulfonyl-2-methoxy-6-(propan-2-yloxy)benzoyl]-3-[4-(trifluoromethyl)phenyl]azetidine]: 100 to 1000 nM.
As for `COc1ccc(OC2CN(C(=O)c3c(OC(C)C(F)(F)F)ccc(C#N)c3Cl)C2)cc1` (stereo not shown) [Example 89, 2-Chloro-3-{[3-(4-methoxyphenoxy)azetidin-1-yl]carbonyl}-4-[(1,1,1-trifluoropropan-2-yl)oxy]benzonitrile], the IC50 was under 100 nM.
Next, `COc1c(C#N)ccc(OCC(F)(F)F)c1C(=O)N1CC(c2ccc(C(F)(F)F)cn2)C1` [Example 125, 2-Methoxy-4-(2,2,2-trifluoroethoxy)-3-({3-[5-(trifluoromethyl)pyridin-2-yl]azetidin-1-yl}carbonyl)benzonitrile]: under 100 nM.
To `COc1c(C#N)ccc(OC(C)C(F)(F)F)c1C(=O)N1CC(c2ccccn2)C1` (stereo not shown) [Example 93, 2-Methoxy-3-{[3-(pyridin-2-yl)azetidin-1-yl]carbonyl}-4-[(1,1,1-trifluoropropan-2-yl)oxy]benzonitrile] belongs under 100 nM; to `COc1c(S(C)(=O)=O)ccc(O[C@@H](C)C(F)(F)F)c1C(=O)N1CC(Oc2ccncc2)C1` [Example 62, 4-{[1-(3-Methanesulfonyl-2-methoxy-6-{[(2S)-1,1,1-trifluoropropan-2-yl]oxy}benzoyl)azetidin-3-yl]oxy}pyridine], 100 to 1000 nM; to `COc1c(C#N)ccc(OCC2CC2)c1C(=O)N1CC(c2ccc(C#N)cc2)C1` [Example 173, 3-{[3-(4-Cyanophenyl)azetidin-1-yl]carbonyl}-4-(cyclopropylmethoxy)-2-methoxybenzonitrile], under 100 nM.
